According to US20090105200A1, “Combination therapy” (priority 2007, published 2009):

How the values were obtained:
Mcl-1 = assay: Immunoblot analysis of Mcl-1; assay type: cell-based, human
Protocol: (§1) Methods. […] Immunoblot analysis (30 μg of protein per condition) was performed to detect cleavage of caspase-12 and PARP, levels of IκB c, phospho-IκBα, p65, p100/p52, as well as expression of NF-κB downstream anti-apoptotic proteins. Parallel studies were performed in two established CLL cell lines (JVM-3 and MEC-2, DSMZ).

primary CLL cells = assay: Cell death by 7AAD staining/flow cytometry and Wright-Giemsa stained cytospin slides; assay type: cell-based, human; conditions: 24 hours; for toxicity to CLL cells (photomicrographs): individual treatment, 3 nM
NF-κB2 precursor p100 = assay: Immunoblot analysis of p100/p52; assay type: cell-based, human; conditions: bortezomib with romidepsin
Protocol: as §1

NF-κB = assay type: cell-based, human; conditions: romidepsin alone
Protocol: as §1

[1] = Phase I/II dose escalation trial: toxicity and maximum tolerated dose; assay type: in vivo, human; conditions: dose level 2; with bortezomib 1.3 mg/m^2 and dexamethasone 20 mg; 28-day cycle
Text: The trial design is illustrated in FIG. 10.
Specifically, during phase I (accelerated dose escalation phase), an accelerated titration design was used to ascertain the MTD of romidepsin. For example, if no dose limiting toxicities (DLTs) and <2 patients have moderate toxicities in cycle 1 (C1), the next patient is entered at one level higher. According to National Cancer Institute Common Toxicity Criteria (NCI-CTC) (version 3), DLT is defined as platelets<25×10^9/L; Grade 4 neutropenia despite G-CSF support; Grade 3 or 4 nausea, emesis, or diarrhea despite treatment; any other Grade 3 or 4 non-haematological toxicity; or >4 week suspension of treatment due to toxicity. The accelerated phase ends when one patient has a DLT during C1 or two patients have “moderate” toxicity during first treatment cycles. Patients were entered in cohorts of three according to the standard dose escalation design. A maximum of six patients were treated at any dose level. MTD is defined as the highest dose level at which the incidence of DLT is less than 33%. […]

[2] = test system: dexamethasone-resistant (MM.1R) human myeloma cells; assay: Apoptosis by Annexin V staining and flow cytometry; assay type: cell-based; conditions: 24 hours; 1 nM romidepsin with 2 nM bortezomib
[3] = test system: bortezomib-resistant cells (U266/PS-R); assay: Apoptosis by Annexin V-FITC staining and flow cytometry; assay type: cell-based, human; conditions: 48 hours; 2 nM romidepsin with 5-15 nM bortezomib
[4] = bortezomib 3 nM with romidepsin 3-5 nM, five patients

Row | SMILES | Mcl-1 level (Mcl-1; bortezomib alone) | toxicity to CLL cells (photomicrographs) (primary CLL cells) | processing of NF-κB2 precursor p100 into p52 (NF-κB2 precursor p100) | NF-κB activity (NF-κB) | bortezomib-induced Mcl-1 accumulation (Mcl-1; cells co-exposed to romidepsin) | primary CLL samples with additive lethality (primary CLL cells; [4]) | primary CLL samples with increased bortezomib lethality (primary CLL cells; [4]) | maximum tolerated dose of romidepsin [1] | effect on bortezomib lethality [2] | effect on bortezomib lethality [3]
1 | CC(C)C[C@H](NC(=O)[C@H](Cc1ccccc1)NC(=O)c1cnccn1)B(O)O [bortezomib, [(1R)-3-methyl-1-[[(2S)-1-oxo-3-phenyl-2-[(pyrazinylcarbonyl)amino]propyl]amino]butyl]boronic acid] | induced accumulation of Mcl-1 | relatively non-toxic | blocked romidepsin-mediated processing of NF-κB2 precursor p100 into its active p52 form | – | – | – | – | – | – | –
2 | C/C=C1\NC(=O)[C@H]2CSSCC/C=C/[C@H](CC(=O)N[C@H](C(C)C)C(=O)N2)OC(=O)[C@H](C(C)C)NC1=O [romidepsin, (1S,4S,10S,16E,21R)-7-[(2Z)-ethylidene]-4,21-diisopropyl-2-oxa-12,13-dithia-5,8,20,23-tetraazabicyclo[8.7.6]tricos-16-ene-3,6,9,19,22-pentanone] | – | relatively non-toxic | – | activated NF-κB activity | diminished | additive lethality in one sample | dramatically increased bortezomib lethality in four out of five primary CLL samples | 10 mg/m^2 | potentiate bortezomib lethality | potentiates bortezomib lethality
